Where two headings read alike, the source gives them in different places.
Experiments:
[1] = test system: human colorectal cancer cell line, COLO-320DM; experiment: Cell proliferation inhibitory activity test (Celltiter-Glo Luminescent Cell Viability Assay); type: cell-based; conditions: COLO-320DM cells, 96 hours
Procedure, shortened: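 GI50 is taken as the concentration halving cell growth versus 1% DMSO control, measured by ATP luminescence. Compound exposure lasted 96 h at 37° C. under 5% CO2, after overnight seeding in RPMI-1640 with 10% FBS and 2 mM glutamine.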

[2] = target: T1, tankyrase 1 (TNKS 1) (Homo sapiens, UniProt O95271); experiment: Tankyrase inhibitory activity test (ELISA, self-polyADP ribosylation), tankyrase 1; type: biochemical; conditions: self-polyADP ribosylation
T1 construct: 1,024-1,327aa; made in house; host or cells: cell-free protein synthesis system
T1 sequence (O95271 1024-1327): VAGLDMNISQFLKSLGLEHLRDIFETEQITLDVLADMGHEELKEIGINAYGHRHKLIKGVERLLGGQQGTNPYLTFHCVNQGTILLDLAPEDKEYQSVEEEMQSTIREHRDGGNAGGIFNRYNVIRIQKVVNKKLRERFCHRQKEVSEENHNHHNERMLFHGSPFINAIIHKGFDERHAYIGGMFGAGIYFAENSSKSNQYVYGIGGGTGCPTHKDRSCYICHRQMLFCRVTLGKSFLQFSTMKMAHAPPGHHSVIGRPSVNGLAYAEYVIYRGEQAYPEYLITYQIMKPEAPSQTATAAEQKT
Procedure, shortened: (§1)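 IC50 was fitted to residual self-polyADP-ribosylation activity, detected by HRP-streptavidin chemiluminescence. Plate-bound Flag fusions (TNKS1 1,024-1,327aa SAM+PARP; TNKS2 613-1,116aa ANK5+SAM+PARP, cell-free synthesized) saw compound for 10 min at room temperature in 50 mM Tris-HCl pH 8.0, 4 mM MgCl2, 0.2 mM DTT. Reaction with 225 μM NAD/25 μM 6-biotin-17-NAD solution ran 45 min at 30 °C.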

[3] = target: T2, tankyrase 2 (TNKS 2) (Homo sapiens, UniProt Q9H2K2); experiment: Tankyrase inhibitory activity test (ELISA, self-polyADP ribosylation), tankyrase 2; type: biochemical; conditions: self-polyADP ribosylation
T2 construct: 613-1, 116aa; made in house; host or cells: cell-free protein synthesis system
T2 sequence (Q9H2K2 613-1166): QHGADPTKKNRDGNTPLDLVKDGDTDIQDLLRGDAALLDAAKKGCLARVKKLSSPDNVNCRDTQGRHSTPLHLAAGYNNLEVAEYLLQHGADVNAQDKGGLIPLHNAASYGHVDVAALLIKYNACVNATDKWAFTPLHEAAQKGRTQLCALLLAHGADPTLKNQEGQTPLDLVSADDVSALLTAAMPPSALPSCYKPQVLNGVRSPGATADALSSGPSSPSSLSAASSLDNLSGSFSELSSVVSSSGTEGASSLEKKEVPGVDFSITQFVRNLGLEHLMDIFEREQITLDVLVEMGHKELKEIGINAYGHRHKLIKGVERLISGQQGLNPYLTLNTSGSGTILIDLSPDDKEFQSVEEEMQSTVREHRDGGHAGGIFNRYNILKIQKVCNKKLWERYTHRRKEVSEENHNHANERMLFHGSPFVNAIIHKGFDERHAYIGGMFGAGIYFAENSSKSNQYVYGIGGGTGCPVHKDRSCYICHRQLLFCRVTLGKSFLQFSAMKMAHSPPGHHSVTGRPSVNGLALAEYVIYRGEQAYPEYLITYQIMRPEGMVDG
Procedure, shortened: as §1

[4] = class symbols, read-out: COLO-320 DM (cell proliferation inhibitory activity, GI50 value)
[5] = ELISA, class symbols, read-out: TNKS1 (inhibitory activity against tankyrase 1, IC50 value)
[6] = ELISA, class symbols, read-out: TNKS2 (inhibitory activity against tankyrase 2, IC50 value)
[7] = read-out: COLO-320 DM cell proliferation inhibitory activity (GI50 class)
[8] = tankyrase 1, ELISA, read-out: TNKS1 inhibitory activity (IC50 class)
[9] = tankyrase 2, ELISA, read-out: TNKS2 inhibitory activity (IC50 class)

Row | SMILES | GI50 [1, 4] | IC50 [2, 5] | IC50 [3, 6] | GI50 [1, 7] | IC50 [2, 8] | IC50 [3, 9]
1 | COc1ccc(F)c2c1NCC21CCN(c2nc3c(c(=O)[nH]2)CCCN3)CC1 [Example 474, 2-(4-fluoro-7-methoxyspiro[indoline-3,4′-piperidin]-1′-yl)-5,6,7,8-tetrahydropyrido[2,3-d]pyrimidin-4(3H)-one] | 100 to 600 nM | < 20 nM | < 20 nM |  |  | 
2 | CN(C)CCOc1cc(Cl)c2c(c1)N(C)C(=O)C21CCN(c2nc3c(c(=O)[nH]2)CCCN3C)CC1 [Example 375, 4-chloro-6-[2-(dimethylamino)ethoxy]-1-methyl-1′-(8-methyl-4-oxo-3,4,5,6,7,8-hexahydro-pyrido[2,3-d]pyrimidin-2-yl) spiro[indoline-3,4′-piperidin]-2-one] |  |  |  | 100 to 600 nM | < 20 nM | < 20 nM
3 | COCCN1C(=O)C2(CCN(c3nc4c(c(=O)[nH]3)CCCN4C)CC2)c2c(F)cc(OCc3nnn[nH]3)cc21 [Example 418, 4-fluoro-1-(2-methoxyethyl)-1′-(8-methyl-4-oxo-3,4,5,6,7,8-hexahydropyrido[2,3-d]pyrimidin-2-yl)-6-[(1H-tetrazole-5-yl)methoxy]spiro[indoline-3,4′-piperidine]-2(1H)-one] | 100 to 600 nM | < 20 nM | < 20 nM |  |  | 
4 | O=c1[nH]c(N2CCC3(CC2)CN(CCO)c2cc(F)cc(F)c23)nc2c(CO)cccc12 [Example 259, 2-[4,6-di-fluoro-1-(2-hydroxy-ethyl)spiro-[indoline-3,4′-piperidin]-1′-yl]-8-(hydroxy-methyl)-quinazolin-4(3H)-one] |  |  |  | 600 to 1000 nM | < 20 nM | < 20 nM
5 | CN(C)CCOc1cc(F)c2c(c1)C(=O)OC21CCN(c2nc3c(c(=O)[nH]2)CCCN3C)CC1 [Example 7, 5-[2-(dimethylamino)ethoxy]-7-fluoro-1′-(8-methyl-4-oxo-3,4,5,6,7,8-hexahydropyrido[2,3-d]pyrimidin-2-yl)-3H-spiro[isobenzofuran-1,4′-piperidin]-3-one] |  |  |  | 600 to 1000 nM | < 20 nM | < 20 nM
6 | CNS(=O)(=O)COc1cc(F)c2c(c1)N(C)C(=O)C21CCN(c2nc3c(c(=O)[nH]2)CCCN3C)CC1 [Example 453, 1-{[4-fluoro-1-meth-yl-1′-(8-methyl-4-oxo-3,4,5,6,7,8-hexahydropyrido [2,3-d]pyrimidin-2-yl)-2-oxospiro [indole-3,4′-piperi-dine]-6-yl]oxy}-N-methylmethane sulfonamide] | 100 to 600 nM | < 20 nM | < 20 nM |  |  | 
7 | O=c1[nH]c(N2CCC3(CC2)CN(Cc2cncnc2)c2cc(F)cc(F)c23)nc2c1CCCC2 [Example 252, 2-[4,6-difluoro-1-(pyrimidin-5-yl)methyl-spiro [indoline-3,4′-piperidin]-1′-yl]-5,6,7,8-tetrahydro-quinazolin-4(3H)-one] |  |  |  | 100 to 600 nM | < 20 nM | < 20 nM
8 | COc1cccc(CN2CC3(CCN(c4nc5c(c(=O)[nH]4)CCCC5)CC3)c3ccccc32)c1 [Example 99, 2-[1-(3-methoxy-benzyl)spiro[indoline-3,4′-piperidin]-1′-yl]-5,6,7,8-tetrahydroquinazolin-4(3H)-one] |  |  |  | 600 to 1000 nM | 20 to 200 nM | < 20 nM
9 | CN(C)CCOc1cc(F)c2c(c1)N(CC(F)(F)F)C(=O)C21CCN(c2nc3c(c(=O)[nH]2)CCCN3C)CC1 [Example 400, 6-[2-(di-methylamino)ethoxy]-4-fluoro-1′-(8-methyl-4-oxo-3,4,5,6,7,8-hexahydro-pyrido [2,3-d]pyrimidin-2-yl)-1-(2,2,2-trifluoroethyl) spiro[indoline-3,4′-piperidin]-2(1H)-one] | 100 to 600 nM | 20 to 200 nM | 20 to 200 nM |  |  | 
10 | CN1CCCc2c1nc(N1CCC3(CC1)C(=O)N(C)c1c(C#N)ccc(Cl)c13)[nH]c2=O [Example 327, 4-chloro-1-methyl-1′-(8-methyl-4-oxo-3,4,5,6,7,8-hexahydro-pyrido[2,3-d]-pyrimidin-2-yl)-2-oxo-spiro[indoline-3,4′-piperidine]-7-carbonitrile] |  |  |  | 100 to 600 nM | < 20 nM | < 20 nM
11 | CN1CCCc2c1nc(N1CCC3(CC1)C(=O)N(C)c1cc(OCCO)cc(F)c13)[nH]c2=O [Example 356, 4-fluoro-6-(2-hydroxy-ethoxy)-1-methyl-1′-(8-methyl-4-oxo-3,4,5,6,7,8-hexahydro-pyrido[2,3-d]pyrimidin-2-yl) spiro [indoline-3,4′-piperidin]-2-one] |  |  |  | 100 to 600 nM | < 20 nM | < 20 nM
12 | CN(C)CCOc1ccc(F)c2c1N(C)C(=O)C21CCN(c2nc3c(c(=O)[nH]2)CCCN3C)CC1 [Example 401, 7-[2-(dimethylamino)ethoxy]-4-fluoro-1′-(4-hy-droxy-8-methyl-6,7-di-hydro-5H-pyrido[2,3-d]pyrimidin-2-yl)-1-methyl spiro[indole-3,4′-piperidin]-2-one] | 100 to 600 nM | < 20 nM | < 20 nM |  |  | 
13 | CN1C(=O)C2(CCN(c3nc4c(c(=O)[nH]3)CCCN4)CC2)c2c(F)ccc(OCC(C)(C)O)c21 [Example 426, 4-fluoro-7-(2-hydroxy-2-methylpropoxy)-1′-(4-hydroxy-5,6,7,8-tetrahydropyrido[2,3-d]pyrimidin-2-yl)-1-methyl-spiro[indole-3,4′-piperidin]-2-one] | 100 to 600 nM | < 20 nM | < 20 nM |  |  | 
14 | CN1CCC(Oc2cc(F)c3c(c2)N(C)C(=O)C32CCN(c3nc4c(c(=O)[nH]3)CCCN4C)CC2)CC1 [Example 380, 4-fluoro-1-methyl-1′-(8-methyl-4-oxo-3,4,5,6,7,8-hexahydropyrido [2,3-d]pyrimidin-2-yl)-6-[(1-methylpiperidin-4-yl)oxy]spiro [indoline-3,4′-piperidin]-2-one] |  |  |  | 600 to 1000 nM | < 20 nM | < 20 nM
15 | CCOC(=O)c1cc(Cl)c2c(c1)N(Cc1cccnc1)CC21CCN(c2nc3c(c(=O)[nH]2)CCCC3)CC1 [Example 193, ethyl 4-chloro-1′-(4-oxo-3,4,5,6,7,8-hexahydroquinazolin-2-yl)-1-(pyridin-3-yl) methylspiro [indoline-3,4′-piperidine]-6-carboxylate] |  |  |  | 100 to 600 nM | 20 to 200 nM | 20 to 200 nM
16 | CN1CCCc2c1nc(N1CCC3(CC1)C(=O)N(C)c1cc(N4CC(=O)N(Cc5ccccc5)C(=O)C4)cc(F)c13)[nH]c2=O [Example 459, 1-benzyl-4-[4-fluoro-1-methyl-1′-(8-methyl-4-oxo-3,4,5,6,7,8-hexa-hydropyrido[2,3-d]pyrimidin-2-yl)-2-oxospiro[indole-3,4′-piperidine]-6-yl]piperazine-2,6-dione] | 100 to 600 nM | 20 to 200 nM | 20 to 200 nM |  |  | 
17 | COCCN1C(=O)C2(CCN(c3nc4c(c(=O)[nH]3)CCCN4C)CC2)c2c(F)cc(N3CCN(C)CC3)cc21 [Example 407, 4-fluoro-1-(2-methoxy-ethyl)-1′-(8-methyl-4-oxo-3,4,5,6,7,8-hexahydropyrido[2,3-d]pyrimidin-2-yl)-6-(4-methylpiperazin-1-yl) spiro[indoline-3,4′-piperidin]-2(1H)-one] | 100 to 600 nM | 20 to 200 nM | < 20 nM |  |  | 
18 | CN1CCCc2c1nc(N1CCC3(CC1)C(=O)N(C)c1cc(OCCN4CCS(=O)(=O)CC4)cc(Cl)c13)[nH]c2=O [Example 378, 4-chloro-6-[2-(1,1-dioxi-dothio-morpholino)ethoxy]-1-methyl-1′-(8-methyl-4-oxo-3,4,5,6,7,8-hexahydropyrido [2,3-d]pyrimidin-2-yl)spiro [indoline-3,4′-piperidin]-2-one] |  |  |  | 600 to 1000 nM | < 20 nM | < 20 nM
19 | O=C(NCCN1CCOCC1)c1cc(Cl)c2c(c1)N(Cc1cccnc1)CC21CCN(c2nc3c(c(=O)[nH]2)CCCC3)CC1 [Example 196, 4-chloro-N-(2-morpho-linoethyl)-1′-(4-oxo-3,4,5,6,7,8-hexahydro-quinazolin-2-yl)-1-(pyridin-3-ylmethyl) spiro[indoline-3,4′-piperidine]-6-carboxamide] |  |  |  | 600 to 1000 nM | < 20 nM | < 20 nM
20 | CN1CCC(Oc2ccc(F)c3c2N(C)C(=O)C32CCN(c3nc4c(c(=O)[nH]3)CCCN4C)CC2)CC1 [Example 420, 4-fluoro-1′-(4-hydroxy-8-methyl-6,7-dihydro-5H-pyrido[2,3-d]pyrimidin-2-yl)-1-methyl-7-(1-methylpiperidin-4-yl)oxyspiro[indole-3,4′-piperidin]-2-one] | 100 to 600 nM | < 20 nM | < 20 nM |  |  | 
21 | CN1CCCc2c1nc(N1CCC3(CC1)C(=O)N(C)c1cc(OCc4nnn[nH]4)cc(F)c13)[nH]c2=O [Example 393, 6-[(1H-tetrazol-5-yl)methoxy]-4-fluoro-1-methyl-1′-(8-methyl-4-oxo-3,4,5,6,7,8-hexahydropyrido [2,3-d]pyrimidin-2-yl)spiro [indoline-3,4′-piperidin]-2(1H)-one] | 100 to 600 nM | < 20 nM | < 20 nM |  |  | 

Source: US11414429B2, “Compound or pharmaceutically acceptable salt thereof” (RIKEN, priority 2016, dated 2022)
